Experimental findings from ChEMBL document CHEMBL3596092, “Design, synthesis and biological evaluation of 4-(alkyloxy)-6-methyl-2H-pyran-2-one derivatives as quorum sensing inhibitors” (Bioorg Med Chem Lett, 2015) are described below.

Molecules are shown by their SMILES. The source made the active and inactive calls. No cut-off for these calls is given here.

Data set [1] deals with T1, Transcriptional activator protein LasR (Pseudomonas aeruginosa (strain ATCC 15692 / PAO1 / 1C / PRS 101 / LMG12228)) (UniProt P25084).
T1 sequence (whole entry): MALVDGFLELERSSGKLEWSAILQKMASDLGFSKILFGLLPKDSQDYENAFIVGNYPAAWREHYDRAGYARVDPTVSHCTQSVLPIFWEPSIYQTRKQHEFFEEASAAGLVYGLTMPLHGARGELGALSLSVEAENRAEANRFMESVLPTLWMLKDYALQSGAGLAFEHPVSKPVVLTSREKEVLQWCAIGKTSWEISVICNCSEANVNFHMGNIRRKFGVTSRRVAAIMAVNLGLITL
The data set is described as follows: Inhibition of LasR in Pseudomonas aeruginosa PA14 assessed as reduction in biofilm formation at 1 to 1000 uM incubated at 37 degC for 24 hrs by crystal violet staining based static biofilm formation assay.

Data set [2] concerns the target T1, Transcriptional activator protein LasR (Pseudomonas aeruginosa (strain ATCC 15692 / PAO1 / 1C / PRS 101 / LMG12228)). The data set is described as follows: Inhibition of LasR in Pseudomonas aeruginosa PA14 assessed as reduction in mvfR gene expression at 10 uM by RT-qPCR method.
Data set [3] has the same target. The data set is described as follows: Inhibition of LasR in Pseudomonas aeruginosa PA14 assessed as reduction in rhlR gene expression at 10 uM by RT-qPCR method. (In general: Quantitative PCR measures a nucleic acid by following its amplification.)
The target is the same in data set [4]. The data set is described as follows: Inhibition of LasR in Pseudomonas aeruginosa PA14 assessed as reduction in lasI gene expression at 10 uM by RT-qPCR method.
Data set [5] has the same target. The data set is described as follows: Inhibition of Pseudomonas aeruginosa LasR expressed in Pseudomonas aeruginosa PA14 over-expressing pUCPLasR assessed as reduction in biofilm formation at 0.1 to 100 uM incubated at 37 degC for 24 hrs by crystal violet staining based static biofilm formation assay.
The target is the same in data set [6]. The data set is described as follows: Inhibition of LasR in Pseudomonas aeruginosa PA14 assessed as reduction in rhlB gene expression at 10 uM by RT-qPCR method.
The target is the same in data set [7]. The data set is described as follows: Inhibition of LasR in Pseudomonas aeruginosa PA14 assessed as reduction in phnB gene expression at 10 uM by RT-qPCR method.
For data set [8] the target is unchanged. The data set is described as follows: Inhibition of LasR in Pseudomonas aeruginosa PA14 assessed as reduction in rhlI gene expression at 10 uM by RT-qPCR method.
Data set [9] shares this target. The data set is described as follows: Inhibition of LasR in Pseudomonas aeruginosa PA14 assessed as reduction in phzE1 gene expression at 10 uM by RT-qPCR method.
Data set [10] shares this target. The data set is described as follows: Inhibition of LasR in Pseudomonas aeruginosa PA14 assessed as reduction in phzC1 gene expression at 10 uM by RT-qPCR method.
Data set [11] shares this target. The data set is described as follows: Inhibition of LasR in Pseudomonas aeruginosa PA14 assessed as reduction in lasA gene expression at 10 uM by RT-qPCR method.
The target is the same in data set [12]. The data set is described as follows: Inhibition of LasR in Pseudomonas aeruginosa PA14 assessed as reduction in biofilm formation incubated at 37 degC for 24 hrs by crystal violet staining based static biofilm formation assay.
Data set [13] has as its system Pseudomonas aeruginosa. The data set is described as follows: Toxicity against Pseudomonas aeruginosa PA14 assessed as effect on house keeping proC gene expression at 10 uM by RT-qPCR method.
For data set [14], the target named is T1, Transcriptional activator protein LasR (Pseudomonas aeruginosa (strain ATCC 15692 / PAO1 / 1C / PRS 101 / LMG12228)). The data set is described as follows: Inhibition of LasR in Pseudomonas aeruginosa PA14 assessed as reduction in biofilm formation at 0.1 to 10 uM incubated at 37 degC for 24 hrs by crystal violet staining based static biofilm formation assay.

Data set [15] has the same target. The data set is described as follows: Inhibition of LasR in Pseudomonas aeruginosa PA14 assessed as reduction in pqsH gene expression at 10 uM by RT-qPCR method.
For data set [16] the target is unchanged. The data set is described as follows: Inhibition of LasR in Pseudomonas aeruginosa PA14 assessed as reduction in rhlA gene expression at 10 uM by RT-qPCR method.
Data set [17] has the same target. The data set is described as follows: Inhibition of LasR in Pseudomonas aeruginosa PA14 assessed as reduction in lasB gene expression at 10 uM by RT-qPCR method.
Data set [18] shares this target. The data set is described as follows: Inhibition of LasR in Pseudomonas aeruginosa PA14 assessed as reduction in pqsC gene expression at 10 uM by RT-qPCR method.
Data set [19] shares this target. The data set is described as follows: Inhibition of LasR in Pseudomonas aeruginosa PA14 assessed as reduction in lasR gene expression at 10 uM by RT-qPCR method.
The test system of data set [20] is Pseudomonas aeruginosa. The data set is described as follows: Toxicity against Pseudomonas aeruginosa PA14 assessed as effect on bacterial growth at 1 to 10 uM incubated at 37 degC for 13 hrs.
Data set [21] has as its target T1, Transcriptional activator protein LasR (Pseudomonas aeruginosa (strain ATCC 15692 / PAO1 / 1C / PRS 101 / LMG12228)). The data set is described as follows: Inhibition of LasR in Pseudomonas aeruginosa PA14 assessed as reduction in pqsD gene expression at 10 uM by RT-qPCR method.

For orientation: inhibition means the change of the read-out against control, counted positive when it falls. In the case of `O=C1C=C(Br)/C(=C/Br)O1`, in data set [1], the inhibition was 13%.
As to `CCCCCCCCCCCCOc1cc(C)oc(=O)c1`, the inhibition entry in [2], in data set [3], in [4], in [5], in data set [6] and in data set [7] was “Active” throughout. In addition, the inhibition result in data set [8], in data set [9], in [10], in data set [11], in [15] and in data set [16] was “Active” each time. Moreover, the inhibition entry in data set [17], in data set [18], in [19] and in [21] was “Active” in each case. Besides, the inhibition in data set [1] was 11%; in data set [12] it was “Dose-dependent effect”; in data set [14] it was 6%. In addition, the Activity result in the data set on Pseudomonas aeruginosa [13] and with Pseudomonas aeruginosa [20] was “Non-toxic” each time.
Consider `CCCCCCCCCCCCCOc1cc(C)oc(=O)c1`, for which, in data set [1], the inhibition is 6%.
In the case of `CCCCCCCCCCCCCCOc1cc(C)oc(=O)c1`, the inhibition in [1] was 6%.
